Data as given in EP4707280A1, “1,4-CINEOLE DERIVATIVE AND INTERMEDIATE THEREOF, HERBICIDE CONTAINING SAID DERIVATIVE AS ACTIVE INGREDIENT, METHOD FOR USING HERBICIDE, AND METHOD FOR PREPARING AGROCHEMICAL COMPOSITION” (HOKKO CHEMICAL INDUSTRY CO., LTD., priority 2023, dated 2024).

Columns and labels:
Format in all cases: in vivo
[1] = system: Echinochloa crus-galli var. formosensis; experiment: Test Example 2: herbicidal effect test by application during growth period of paddy rice; conditions: Echinochloa crus-galli; 120 g per 10 ares; applied seven days after sowing, flooded pots; 14 days after application; read-out: weed inhibition rate
Protocol: (§1) The present test was conducted in duplicate for each chemical concentration group, and the weed inhibition rate (%) was determined 14 days after chemical application using the following formula (Math. 1). [formula]
(§2) Wagner pots with an area of […] were filled with paddy soil, followed by addition of water and incorporation of chemical fertilizer (N:P:K = 16:16:16), after which puddling was performed. After that, seeds of Echinochloa crus-galli var. formosensis, broad-leaved weeds (Monochoria vaginalis), and Scirpus juncoides were sown at a depth of 0 cm to 1 cm, 30 seeds each. Immediately after sowing, the pots were flooded and a water depth of approximately 3 cm was maintained. Subsequent management was conducted in a glass greenhouse. Seven days after sowing, an emulsifiable concentrate prepared according to Formulation Example 5 using the compound shown below was diluted with water, and a specified amount of the diluted solution was applied by dropper. The amount of the active ingredient to be applied was equivalent to 120 g per 10 ares. The test was conducted in duplicate for each chemical concentration group, and the herbicidal effect was evaluated 14 days after chemical application using the same criteria as in Test Example 1.

Echinochloa crus-galli [2] = experiment: Test Example 3: herbicidal effect test by soil application in upland field; conditions: Echinochloa crus-galli, 120 g per 10 ares, sprayed one day after sowing, 14 days after application, read-out: weed inhibition rate
Protocol: as §1
(§3) Pots with an area of 36 cm^2 were filled with upland soil (alluvial loam), twenty seeds each of weeds of Digitaria ciliaris, Echinochloa crus-galli, Chenopodium album, and Amaranthus viridis were uniformly mixed with the top 1 cm layer of soil and the surface was lightly pressed down. One day after sowing, an emulsifiable concentrate prepared according to Formulation Example 5 using the compound shown below was diluted with water, and the diluted solution was sprayed onto the soil surface at a rate of 100 liters per 10 ares. The amount of the active ingredient to be applied was equivalent to 120 g per 10 ares. Fourteen days after chemical application, the herbicidal effect was evaluated according to the same criteria as in Test Example 1.

Digitaria ciliaris [3] = experiment: as above; conditions: Digitaria ciliaris, 120 g per 10 ares, sprayed one day after sowing, 14 days after application, read-out: weed inhibition rate
Protocol: as §1, §3

[4] = system: Echinochloa crus-galli var. formosensis; experiment: Test Example 1: herbicidal effect test by soil application in paddy rice; conditions: Echinochloa crus-galli, soil, 336 h; 120 g active ingredient per 10 ares; applied immediately after sowing, flooded pots; 14 days after application; read-out: weed inhibition rate
Protocol: as §2, with “([…] Monochoria” for “(Monochoria”, “Immediately thereafter,” for “Seven days after sowing,”, “ares.” for “ares. The test was conducted in duplicate for each chemical concentration group, and the herbicidal effect was evaluated 14 days after chemical application using the same criteria as in Test Example 1.”

Echinochloa crus-galli [5] = experiment: Test Example 4: herbicidal effect test by stem and leaf treatment in upland field; conditions: Echinochloa crus-galli; 120 g per 10 ares; sprayed seven days after sowing, upland soil; 14 days after application; read-out: weed inhibition rate
Digitaria ciliaris [6] = experiment: as above; conditions: Digitaria ciliaris; 120 g per 10 ares; sprayed seven days after sowing, upland soil; 14 days after application; read-out: weed inhibition rate
Protocol: as §1
as §3, with “crus-galli,” for “crus-galli, Chenopodium album,”, “Seven days” for “One day”

Cc1cccc(C)c1COC1CC2(C(C)C)OC1(C)CC2Br (stereo not drawn) [1-1599, 5-bromo-2-[(2,6-dimethylphenyl)methoxy]-1-methyl-4-isopropyl-7-oxabicyclo[2.2.1]heptane]
≥ 80%: inhibition at 1200 g/ha [1] | inhibition at 1200 g/ha (Echinochloa crus-galli [2]) | inhibition at 1200 g/ha (Digitaria ciliaris [3]) | pest or weed control at 1200 g/ha [4] | inhibition at 1200 g/ha (Echinochloa crus-galli [5]) | inhibition at 1200 g/ha (Digitaria ciliaris [6])

CC(C)=CCO[C@H]1C[C@@]2(C(C)C)O[C@]1(C)CC2Br (mixture of isomers) [1-1007, (1R,2S,4S,SR)-5-bromo-1-methyl-2-(3-methylbut-2-enoxy)-4-isopropyl-7-oxabicyclo[2.2.1]heptane]
≥ 80%: inhibition at 1200 g/ha [1] | inhibition at 1200 g/ha (Echinochloa crus-galli [2]) | inhibition at 1200 g/ha (Digitaria ciliaris [3]) | pest or weed control at 1200 g/ha [4] | inhibition at 1200 g/ha (Echinochloa crus-galli [5]) | inhibition at 1200 g/ha (Digitaria ciliaris [6])

CC(C)[C@]12C[C@@H](OCc3ccccc3OC(F)(F)F)[C@](C)(CC1=O)O2 [2-348, (1R,4S,5R)-1-isopropyl-4-methyl-5-((2-(trifluoromethoxy)benzyl)oxy)-7-oxabicyclo[2.2.1]heptan-2-one]
≥ 80%: inhibition at 1200 g/ha [1] | inhibition at 1200 g/ha (Echinochloa crus-galli [2]) | inhibition at 1200 g/ha (Digitaria ciliaris [3]) | pest or weed control at 1200 g/ha [4] | inhibition at 1200 g/ha (Echinochloa crus-galli [5]) | inhibition at 1200 g/ha (Digitaria ciliaris [6])

Cc1ccccc1CO[C@H]1C[C@@]2(C(C)C)O[C@]1(C)C[C@H]2Br [1-1016, (1R,2S,4S,5R)-5-bromo-1-methyl-2-[(2-methylphenyl)methoxy]-4-isopropyl-7-oxabicyclo[2.2.1]heptane]
≥ 80%: inhibition at 1200 g/ha [1] | inhibition at 1200 g/ha (Echinochloa crus-galli [2]) | inhibition at 1200 g/ha (Digitaria ciliaris [3]) | pest or weed control at 1200 g/ha [4] | inhibition at 1200 g/ha (Echinochloa crus-galli [5]) | inhibition at 1200 g/ha (Digitaria ciliaris [6])

COc1ccc(COC2CC3(C(C)C)OC2(C)CC3Br)cc1 (stereo not drawn) [1-1351, 5-bromo-2-[(4-methoxyphenyl)methoxy]-1-methyl-4-isopropyl-7-oxabicyclo[2.2.1]heptane]
≥ 80%: inhibition at 1200 g/ha [1] | inhibition at 1200 g/ha (Echinochloa crus-galli [2]) | inhibition at 1200 g/ha (Digitaria ciliaris [3]) | pest or weed control at 1200 g/ha [4] | inhibition at 1200 g/ha (Echinochloa crus-galli [5]) | inhibition at 1200 g/ha (Digitaria ciliaris [6])

CC(C)C12CC(OCc3ccccc3C(F)(F)F)C(C)(CC1Br)O2 (stereo not drawn) [1-1367, 5-bromo-1-methyl-4-isopropyl-2-[[2-(trifluoromethyl)phenyl]methoxy]-7-oxabicyclo[2.2.1]heptane]
≥ 80%: inhibition at 1200 g/ha [1] | inhibition at 1200 g/ha (Echinochloa crus-galli [2]) | inhibition at 1200 g/ha (Digitaria ciliaris [3]) | pest or weed control at 1200 g/ha [4] | inhibition at 1200 g/ha (Echinochloa crus-galli [5]) | inhibition at 1200 g/ha (Digitaria ciliaris [6])

Cc1cccc(COC2CC3(C(C)C)OC2(C)CC3Br)c1 (stereo not drawn) [1-1344, 5-bromo-1-methyl-2-[(3-methylphenyl)methoxy]-4-isopropyl-7-oxabicyclo[2.2.1]heptane]
≥ 80%: inhibition at 1200 g/ha [1] | inhibition at 1200 g/ha (Echinochloa crus-galli [2]) | inhibition at 1200 g/ha (Digitaria ciliaris [3]) | pest or weed control at 1200 g/ha [4] | inhibition at 1200 g/ha (Echinochloa crus-galli [5]) | inhibition at 1200 g/ha (Digitaria ciliaris [6])

CC(C)[C@@]12C[C@H](OCc3ccccc3Br)[C@@](C)(C[C@H]1Br)O2 [1-1034, (1R,2S,4S,5R)-5-bromo-2-[(2-bromophenyl)methoxy]-1-methyl-4-isopropyl-7-oxabicyclo[2.2.1]heptane]
≥ 80%: inhibition at 1200 g/ha [1] | inhibition at 1200 g/ha (Echinochloa crus-galli [2]) | inhibition at 1200 g/ha (Digitaria ciliaris [3]) | pest or weed control at 1200 g/ha [4] | inhibition at 1200 g/ha (Echinochloa crus-galli [5]) | inhibition at 1200 g/ha (Digitaria ciliaris [6])

CC(C)[C@@]12C[C@H](OCc3c(F)cccc3Cl)[C@@](C)(C[C@H]1Br)O2 [1-1054, (1R,2S,4S,5R)-5-bromo-2-[(2-chloro-6-fluorophenyl)methoxy]-1-methyl-4-isopropyl-7-oxabicyclo[2.2.1]heptane]
≥ 80%: inhibition at 1200 g/ha [1] | inhibition at 1200 g/ha (Echinochloa crus-galli [2]) | inhibition at 1200 g/ha (Digitaria ciliaris [3]) | pest or weed control at 1200 g/ha [4] | inhibition at 1200 g/ha (Echinochloa crus-galli [5]) | inhibition at 1200 g/ha (Digitaria ciliaris [6])

Cc1cccc(C)c1CO[C@H]1C[C@@]2(C(C)C)O[C@]1(C)C[C@H]2I [1-1118, (1R,2S,4S,5R)-2-[(2,6-dimethylphenyl)methoxy]-5-iodo-1-methyl-4-isopropyl-7-oxabicyclo[2.2.1]heptane]
≥ 80%: inhibition at 1200 g/ha [1] | inhibition at 1200 g/ha (Echinochloa crus-galli [2]) | inhibition at 1200 g/ha (Digitaria ciliaris [3]) | pest or weed control at 1200 g/ha [4] | inhibition at 1200 g/ha (Echinochloa crus-galli [5]) | inhibition at 1200 g/ha (Digitaria ciliaris [6])

CC(C)C12CC(OCc3ccccc3I)C(C)(CC1Br)O2 (stereo not drawn) [1-1364, 5-bromo-2-[(2-iodophenyl)methoxy]-1-methyl-4-isopropyl-7-oxabicyclo[2.2.1]heptane]
≥ 80%: inhibition at 1200 g/ha [1] | inhibition at 1200 g/ha (Echinochloa crus-galli [2]) | inhibition at 1200 g/ha (Digitaria ciliaris [3]) | pest or weed control at 1200 g/ha [4] | inhibition at 1200 g/ha (Echinochloa crus-galli [5]) | inhibition at 1200 g/ha (Digitaria ciliaris [6])

CC(C)[C@@]12C[C@H](OCc3ccccc3)[C@@](C)(C[C@H]1Br)O2 [1-1015, (1R,2S,4S,5R)-5-bromo-1-methyl-2-phenylmethoxy-4-isopropyl-7-oxabicyclo[2.2.1]heptane]
≥ 80%: inhibition at 1200 g/ha [1] | inhibition at 1200 g/ha (Echinochloa crus-galli [2]) | inhibition at 1200 g/ha (Digitaria ciliaris [3]) | pest or weed control at 1200 g/ha [4] | inhibition at 1200 g/ha (Echinochloa crus-galli [5]) | inhibition at 1200 g/ha (Digitaria ciliaris [6])

Cc1ccc(COC2CC3(C(C)C)OC2(C)CC3Br)cc1 (stereo not drawn) [1-1345, 5-bromo-1-methyl-2-[(4-methylphenyl)methoxy]-4-isopropyl-7-oxabicyclo[2.2.1]heptane]
≥ 80%: inhibition at 1200 g/ha [1] | inhibition at 1200 g/ha (Echinochloa crus-galli [2]) | inhibition at 1200 g/ha (Digitaria ciliaris [3]) | pest or weed control at 1200 g/ha [4] | inhibition at 1200 g/ha (Echinochloa crus-galli [5]) | inhibition at 1200 g/ha (Digitaria ciliaris [6])

CC(C)[C@@]12C[C@H](OCc3ccccc3)[C@@](C)(CC1I)O2 (mixture of isomers) [1-1081, (1R,2S,4S,SR)-5-iodo-1-methyl-2-phenylmethoxy-4-isopropyl-7-oxabicyclo[2.2.1]heptane]
≥ 80%: inhibition at 1200 g/ha [1] | inhibition at 1200 g/ha (Echinochloa crus-galli [2]) | inhibition at 1200 g/ha (Digitaria ciliaris [3]) | pest or weed control at 1200 g/ha [4] | inhibition at 1200 g/ha (Echinochloa crus-galli [5]) | inhibition at 1200 g/ha (Digitaria ciliaris [6])

CC(C)[C@@]12C[C@H](OCc3ccccc3I)[C@@](C)(C[C@H]1Br)O2 [1-1037, (1R,2S,4S,5R)-5-bromo-2-[(2-iodophenyl)methoxy]-1-methyl-4-isopropyl-7-oxabicyclo[2.2.1]heptane]
≥ 80%: inhibition at 1200 g/ha [1] | inhibition at 1200 g/ha (Echinochloa crus-galli [2]) | inhibition at 1200 g/ha (Digitaria ciliaris [3]) | pest or weed control at 1200 g/ha [4] | inhibition at 1200 g/ha (Echinochloa crus-galli [5]) | inhibition at 1200 g/ha (Digitaria ciliaris [6])

CC(C)C12CC(OCc3c(Cl)cccc3Cl)C(C)(CC1Br)O2 (stereo not drawn) [1-1380, 5-bromo-2-[(2,6-dichlorophenyl)methoxy]-1-methyl-4-isopropyl-7-oxabicyclo[2.2.1]heptane]
≥ 80%: inhibition at 1200 g/ha [1] | inhibition at 1200 g/ha (Echinochloa crus-galli [2]) | inhibition at 1200 g/ha (Digitaria ciliaris [3]) | pest or weed control at 1200 g/ha [4] | inhibition at 1200 g/ha (Echinochloa crus-galli [5]) | inhibition at 1200 g/ha (Digitaria ciliaris [6])

CC(C)C12CC(OCc3ccc(Cl)cc3Cl)C(C)(CC1Br)O2 (stereo not drawn) [1-1385, 5-bromo-2-[(2,4-dichlorophenyl)methoxy]-1-methyl-4-isopropyl-7-oxabicyclo[2.2.1]heptane]
≥ 80%: inhibition at 1200 g/ha [1] | inhibition at 1200 g/ha (Echinochloa crus-galli [2]) | inhibition at 1200 g/ha (Digitaria ciliaris [3]) | pest or weed control at 1200 g/ha [4] | inhibition at 1200 g/ha (Echinochloa crus-galli [5]) | inhibition at 1200 g/ha (Digitaria ciliaris [6])
